Results on 2 compounds are retold here after publication PMC3222680 (PLoS ONE, 2011).

One assay concerns the target T1, αK24′A β-αWT GlyR (Homo sapiens, UniProt P23415+P48167, K304A).
T1 construct: The α R218-Q219 and β R242-Q243 are also the joining sites for chimeras constructed between the ECD and TMD; expressed in transfected cells; host or cells: HEK293 (ATCC)
T1 sequence (P23415 29-449 isoform P23415-2 K304A): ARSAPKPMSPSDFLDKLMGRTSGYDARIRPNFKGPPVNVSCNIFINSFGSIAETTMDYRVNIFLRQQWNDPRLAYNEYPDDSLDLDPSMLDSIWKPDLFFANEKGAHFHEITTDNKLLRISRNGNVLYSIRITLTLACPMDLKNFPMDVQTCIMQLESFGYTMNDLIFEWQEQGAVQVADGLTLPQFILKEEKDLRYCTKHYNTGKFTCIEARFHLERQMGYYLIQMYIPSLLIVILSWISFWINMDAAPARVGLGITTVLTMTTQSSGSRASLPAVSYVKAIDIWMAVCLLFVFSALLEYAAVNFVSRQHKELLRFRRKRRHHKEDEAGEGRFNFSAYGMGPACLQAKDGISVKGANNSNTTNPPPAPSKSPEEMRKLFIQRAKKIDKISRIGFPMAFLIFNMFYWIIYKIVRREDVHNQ
T1 sequence (P48167+P23415 with tags, fused parts or gaps P48167:V266M/P48167:F268Y/P48167:M270L/P48167:M271I/P48167:G272Q/P48167:V273M/P48167:A275I/P48167:T277S/P48167:V282I/P48167:L286I/P48167:P292M/P48167:S295A/P48167:A296P/P48167:P300G): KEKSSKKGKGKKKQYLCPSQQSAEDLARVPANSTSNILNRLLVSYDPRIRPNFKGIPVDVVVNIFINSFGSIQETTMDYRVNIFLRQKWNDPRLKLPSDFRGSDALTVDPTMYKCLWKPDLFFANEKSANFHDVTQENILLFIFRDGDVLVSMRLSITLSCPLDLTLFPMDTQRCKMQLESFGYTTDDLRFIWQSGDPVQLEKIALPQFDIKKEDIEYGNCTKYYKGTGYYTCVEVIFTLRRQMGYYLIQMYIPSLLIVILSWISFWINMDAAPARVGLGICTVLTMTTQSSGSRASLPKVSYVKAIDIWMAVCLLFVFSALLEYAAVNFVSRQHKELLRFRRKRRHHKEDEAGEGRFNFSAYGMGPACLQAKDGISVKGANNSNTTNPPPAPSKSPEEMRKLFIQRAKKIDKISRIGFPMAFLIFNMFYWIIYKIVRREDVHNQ
The class given is cell-based. As to the method:
(§1) The human GlyR α1 and β subunit cDNAs were subcloned into the pcDNA3.1zeo+ (Invitrogen) or pGEMHE [44] plasmid vectors for expression in HEK293 cells or Xenopus oocytes, respectively. Site-directed mutagenesis and chimera construction were performed using the QuickChange (Stratagene, La Jolla, CA, USA) mutagenesis and multiple-template-based sequential PCR protocols, respectively.
(§2) For the β-α chimeras used for determining the effect of hyperekplexia-mimicking mutations on α1 β GlyR channel function, the Thr at the M2 6′ position was replaced by a Cys. […] Through such a modification, picrotoxin resistance was used to distinguish the heteromeric α1 β-α GlyR from the homomeric α1 GlyR when the α1 and β-α subunits were co-expressed.
(§3) The effects of the hyperekplexia-mimicking mutations, K24′A, V25′A and Y27′A, were examined on GlyRs expressed in HEK293 cells (ATCC). Details of the HEK293 cell culture, GlyR expression and electrophysiological recording of the HEK293 cells are described elsewhere. Briefly, HEK293 cells were maintained in DMEM supplemented with 10% fetal bovine serum. Cells were transfected using a calcium phosphate precipitation protocol. When co-transfecting the α1 together with the β or any other chimera subunits, their respective cDNAs were combined in a ratio of 1∶10. In addition, the pEGFP-N1 (Clontech) was co-transfected to facilitate identifying the transfected cells. […] Cells were treated with external Ringer's solution and internal CsCl solution [30]. Cells were voltage-clamped at −40 mV. When the heteromeric GlyRs were expressed, the picrotoxin sensitivity was tested to confirm that the majority of receptors are heteromers, [30].
(§4) Results are expressed as mean±standard error of the mean of three or more independent experiments. […] Statistical significance was determined using the Student's t-test.

For the next assay, the target named is T2, αWT β-αV25′A GlyR (Homo sapiens, UniProt P23415+P48167, A275I/A296P/F268Y/G272Q/L286I/M270L/M271I/P292M/P300G/S295A/T277S/V266M/V273M/V282I/V305A).
T2 construct: The α R218-Q219 and β R242-Q243 are also the joining sites for chimeras constructed between the ECD and TMD; expressed in transfected cells; host or cells: HEK293 (ATCC)
T2 sequence (P23415 29-449 isoform P23415-2): T1 sequence (P23415 29-449 isoform P23415-2 K304A) with A276K
T2 sequence (P48167+P23415 with tags, fused parts or gaps P48167:V266M/P48167:F268Y/P48167:M270L/P48167:M271I/P48167:G272Q/P48167:V273M/P48167:A275I/P48167:T277S/P48167:V282I/P48167:L286I/P48167:P292M/P48167:S295A/P48167:A296P/P48167:P300G/P23415:V305A): T1 sequence (P48167+P23415 with tags, fused parts or gaps P48167:V266M/P48167:F268Y/P48167:M270L/P48167:M271I/P48167:G272Q/P48167:V273M/P48167:A275I/P48167:T277S/P48167:V282I/P48167:L286I/P48167:P292M/P48167:S295A/P48167:A296P/P48167:P300G) with V301A
Type of assay: cell-based. As for the experimental part: as §1, §2, §3, §4

Where [1] appears, read: αK24′A β-αWT, HEK293, with glycine at EC50 of α1 homomer.
Where [2] appears, read: αWT β-αV25′A, HEK293, with glycine at EC50 of α1 homomer.

Substitutions are numbered along the chain they refer to.

Turning to picrotoxin [PTX], at αK24′A β-αWT GlyR (setting [1]), the “10uM PTX inhibition (%)” value was 10.0±2.2% and the “100uM PTX inhibition (%)” value came to 23±4%. On αWT β-αV25′A GlyR (setting [2]), the “10uM PTX inhibition (%)” value stood at 8.8±1.6% and the “100uM PTX inhibition (%)” value is on record as 31±1%.
At αK24′A β-αWT GlyR, `NCC(=O)O` [glycine] displayed an Imax of 8.9±1.9 nA and a nH of 2.0±0.3. Besides, on αWT β-αV25′A GlyR, the Imax came to 11.0±1.1 nA and the nH worked out at 2.2±0.3.
